≈ marks a conversion by molar mass, not a printed value.
System: Enterobacteriaceae spp. strains
Test: In vitro activity (MIC) against Enterobacteriaceae spp. strains

`COC1/C=C/O[C@@]2(C)Oc3c(C)c(O)c4c(O)c(c5c(c4c3C2=O)NC2C=C(C)C=CN52)NC(=O)/C(C)=C\C=C\C(C)C(O)C(C)C(O)C(C)C(O)C1C` (some centres unmarked) [25-desacetyl rifaximin] was tested, and the MIC (Escherichia coli, E. coli 117) was 256 µg/mL (≈ 343 µM), the MIC (Escherichia coli, E. coli 118) was 128 µg/mL (≈ 172 µM) and the MIC (Escherichia coli, E. coli 120) was 128 µg/mL (≈ 172 µM). It also gave an MIC (Escherichia coli, E. coli 140) of 256 µg/mL (≈ 343 µM), an MIC (Escherichia coli, E. coli 171) of 128 µg/mL (≈ 172 µM) and an MIC (Escherichia coli, E. coli 342) of 128 µg/mL (≈ 172 µM). For the same compound, the MIC (Escherichia coli, E. coli 343) was 256 µg/mL (≈ 343 µM), the MIC (Escherichia coli, E. coli 345) was 128 µg/mL (≈ 172 µM) and the MIC (Escherichia coli, E. coli 349) was 128 µg/mL (≈ 172 µM). The MIC (Escherichia coli, E. coli 351) was 128 µg/mL (≈ 172 µM), the MIC (Klebsiella aerogenes, E. aerogenes 235) was 128 µg/mL (≈ 172 µM) and the MIC (Klebsiella aerogenes, E. aerogenes 281) was 128 µg/mL (≈ 172 µM). For the same compound, the MIC (Klebsiella aerogenes, E. aerogenes 290) was 128 µg/mL (≈ 172 µM), the MIC (Klebsiella aerogenes, E. aerogenes 1023) was 128 µg/mL (≈ 172 µM) and the MIC (Klebsiella aerogenes, E. aerogenes 1030) was 256 µg/mL (≈ 343 µM). It also gave an MIC (Klebsiella aerogenes, E. aerogenes 1031) of 128 µg/mL (≈ 172 µM), an MIC (Klebsiella oxytoca, K. oxytoca 4) of 128 µg/mL (≈ 172 µM) and an MIC (Klebsiella oxytoca, K. oxytoca 18) of 128 µg/mL (≈ 172 µM). The MIC (Klebsiella oxytoca, K. oxytoca 479) was 128 µg/mL (≈ 172 µM), the MIC (Klebsiella oxytoca, K. oxytoca 499) was 128 µg/mL (≈ 172 µM) and the MIC (Klebsiella pneumoniae, K. pneumoniae 17) was 128 µg/mL (≈ 172 µM). For the same compound, the MIC (Klebsiella pneumoniae, K. pneumoniae 19) was 128 µg/mL (≈ 172 µM), the MIC (Klebsiella pneumoniae, K. pneumoniae 76) was 256 µg/mL (≈ 343 µM) and the MIC (Klebsiella pneumoniae, K. pneumoniae 80) was 128 µg/mL (≈ 172 µM). It also gave an MIC (Klebsiella pneumoniae, K. pneumoniae 91) of 128 µg/mL (≈ 172 µM), an MIC (Klebsiella pneumoniae, K. pneumoniae 1064) of 128 µg/mL (≈ 172 µM) and an MIC (Morganella morganii, M. morganii 42) of 128 µg/mL (≈ 172 µM). It also gave an MIC (Morganella morganii, M. morganii 48) of 128 µg/mL (≈ 172 µM), an MIC (Morganella morganii, M. morganii 50) of 128 µg/mL (≈ 172 µM) and an MIC (Morganella morganii, M. morganii 57) of 256 µg/mL (≈ 343 µM). It also gave an MIC (Morganella morganii, M. morganii 67) of 256 µg/mL (≈ 343 µM), an MIC (Morganella morganii, M. morganii 101) of 128 µg/mL (≈ 172 µM) and an MIC (Morganella morganii, M. morganii 105) of 128 µg/mL (≈ 172 µM). It also gave an MIC (Morganella morganii, M. morganii 108) of 128 µg/mL (≈ 172 µM), an MIC (Morganella morganii, M. morganii 453) of 128 µg/mL (≈ 172 µM) and an MIC (Morganella morganii, M. morganii 458) of 256 µg/mL (≈ 343 µM). The MIC (Morganella morganii, M. morganii 461) was 128 µg/mL (≈ 172 µM), the MIC (Morganella morganii, M. morganii 462) was 128 µg/mL (≈ 172 µM) and the MIC (Morganella morganii, M. morganii 923) was 128 µg/mL (≈ 172 µM). For the same compound, the MIC (Morganella morganii, M. morganii 932) was 128 µg/mL (≈ 172 µM), the MIC (Morganella morganii, M. morganii 935) was 256 µg/mL (≈ 343 µM) and the MIC (Morganella morganii, M. morganii 1006) was 128 µg/mL (≈ 172 µM). The MIC (Proteus mirabilis, P. mirabilis 465) was 128 µg/mL (≈ 172 µM), the MIC (Proteus mirabilis, P. mirabilis 466) was 128 µg/mL (≈ 172 µM) and the MIC (Proteus mirabilis, P. mirabilis 469) was 128 µg/mL (≈ 172 µM). It also gave an MIC (Proteus mirabilis, P. mirabilis 470) of 128 µg/mL (≈ 172 µM), an MIC (Proteus mirabilis, P. mirabilis 471) of 256 µg/mL (≈ 343 µM) and an MIC (Proteus mirabilis, P. mirabilis 472) of 128 µg/mL (≈ 172 µM). It also gave an MIC (Proteus mirabilis, P. mirabilis 473) of 128 µg/mL (≈ 172 µM), an MIC (Proteus mirabilis, P. mirabilis 477) of 128 µg/mL (≈ 172 µM) and an MIC (Proteus mirabilis, P. mirabilis 479) of 128 µg/mL (≈ 172 µM). The MIC (Proteus mirabilis, P. mirabilis 480) was 256 µg/mL (≈ 343 µM), the MIC (Proteus mirabilis, P. mirabilis 489) was 128 µg/mL (≈ 172 µM) and the MIC (Proteus mirabilis, P. mirabilis 928) was 128 µg/mL (≈ 172 µM). For the same compound, the MIC (Proteus mirabilis, P. mirabilis 972) was 128 µg/mL (≈ 172 µM), the MIC (Proteus mirabilis, P. mirabilis 983) was 128 µg/mL (≈ 172 µM) and the MIC (Proteus mirabilis, P. mirabilis 985) was 256 µg/mL (≈ 343 µM). For the same compound, the MIC (Proteus mirabilis, P. mirabilis 987) was 128 µg/mL (≈ 172 µM), the MIC (Proteus mirabilis, P. mirabilis 988) was 128 µg/mL (≈ 172 µM) and the MIC (Proteus mirabilis, P. mirabilis 990) was 128 µg/mL (≈ 172 µM). It also gave an MIC (Proteus mirabilis, P. mirabilis 991) of 128 µg/mL (≈ 172 µM), an MIC (Proteus mirabilis, P. mirabilis 993) of 128 µg/mL (≈ 172 µM) and an MIC (Proteus mirabilis, P. mirabilis 995) of 128 µg/mL (≈ 172 µM). It also gave an MIC (Proteus mirabilis, P. mirabilis 996) of 128 µg/mL (≈ 172 µM), an MIC (Proteus mirabilis, P. mirabilis 997) of 128 µg/mL (≈ 172 µM) and an MIC (Proteus mirabilis, P. mirabilis 998) of 256 µg/mL (≈ 343 µM). The MIC (Providencia stuartii, P. stuartii 94) was 128 µg/mL (≈ 172 µM), the MIC (Providencia stuartii, P. stuartii 299) was 128 µg/mL (≈ 172 µM) and the MIC (Providencia stuartii, P. stuartii 301) was 128 µg/mL (≈ 172 µM). The MIC (Providencia stuartii, P. stuartii 306) was 256 µg/mL (≈ 343 µM), the MIC (Providencia stuartii, P. stuartii 312) was 128 µg/mL (≈ 172 µM) and the MIC (Providencia stuartii, P. stuartii 459) was 128 µg/mL (≈ 172 µM). For the same compound, the MIC (S. liquefaciens 55) was 256 µg/mL (≈ 343 µM), the MIC (S. odorifera 59) was 128 µg/mL (≈ 172 µM) and the MIC (Serratia marcescens, S. marcescens 38) was 128 µg/mL (≈ 172 µM). For the same compound, the MIC (Serratia marcescens, S. marcescens 45) was 128 µg/mL (≈ 172 µM), the MIC (Serratia marcescens, S. marcescens 59) was 128 µg/mL (≈ 172 µM) and the MIC (Serratia marcescens, S. marcescens 63) was 256 µg/mL (≈ 343 µM). The MIC (Stenotrophomonas maltophilia, S. maltophilia 1203) was 128 µg/mL (≈ 172 µM) and the MIC (Stenotrophomonas maltophilia, S. maltophilia 1208) was 128 µg/mL (≈ 172 µM).
